Assay results: patent publication US12419869B2, “Methods of treating multiple sclerosis” (Vanda Pharmaceuticals Inc., priority 2021, dated 2025)

Columns and labels:
[1] = test system: Patients (18-55 years) with RMS; assay: No evidence of disease activity (NEDA-3) status, baseline to week 108; format: in vivo, human
Experimental: Patients (18-55 years) with RMS (expanded disability status scale scores: 0-5.5) were randomized (1:1) to receive ponesimod (PON) 20 mg or teriflunomide (TER) 14 mg for 108 weeks. MRI assessments were: volume of T2 lesions; mean number of new gadolinium-enhancing (Gd+) T1 lesions and new/enlarging T2 lesions; and absence of active MRI lesions at week 108. NEDA-3 status (absence of confirmed relapse, Gd+T1 lesions and new/enlarging T2 lesions on annual MRIs, and 12-week confirmed disability accumulation) was evaluated from baseline to week 108.

[2] = test system: peripheral blood lymphocyte count; assay: Peripheral blood lymphocyte count in healthy volunteers; format: in vivo, human
Experimental: In healthy volunteers, PONVORY induces a dose-dependent reduction of the peripheral blood lymphocyte count from a single dose of 5 mg onwards, with the greatest reduction observed 6 hours post-dose, caused by reversible sequestration of lymphocytes in lymphoid tissues. After 7 daily doses of 20 mg, the greatest decrease in absolute mean lymphocyte count was to 26% of baseline (650 cells/μL), observed 6 hours after administration. Peripheral blood B cells [CD19+] and T cells [CD3+], T-helper [CD3+CD4+], and T-cytotoxic [CD3+CD8+] cell subsets are all affected, while NK cells are not. T-helper cells were more sensitive to the effects of ponesimod than T-cytotoxic cells.

[3] = test system: CYP3A4 and UGT1A1; assay: In vitro assessments and limited clinical data, strong CYP3A4 and UGT1A1 inducers; details: e.g., rifampin, phenytoin, carbamazepine
From the text: It is unclear whether this decrease in ponesimod systemic exposure would be considered of clinical relevance. Coadministration of PONVORY with strong CYP3A4 and UGT1A1 inducers is not recommended.

[4] = test system: rat; assay: Micronucleus in rat; details: in vivo
From the text: Ponesimod was negative in a battery of in vitro (Ames, chromosomal aberration in mammalian cells) and in vivo (micronucleus in rat) assays.

[5] = test system: heart rate; assay: Heart rate pharmacodynamics, dose dependence; set-up: species or system human; details: in vivo
Experimental: PONVORY causes a transient dose-dependent reduction in heart rate (HR) and AV conduction delays upon treatment initiation [see Warnings and Precautions (5.2)]. The heart rate decreases plateaued at doses greater than or equal to 40 mg [2 times the recommended maintenance dosage], and bradyarrhythmic events (AV blocks) were detected at a higher incidence under PONVORY treatment, compared to placebo. This effect starts within the first hour of dosing and is maximal at 2-4 hours post-dose. HR generally returns to pre-dose values by 4-5 hours post-dose on Day 1, and the effect diminishes with repeated administration. indicating tolerance.

[6] = test system: dogs; assay: Oral toxicity studies of 13 to 52 weeks in dogs, coronary arterial lesions; format: in vivo, dog; details: dogs
Experimental: (§1) At the NOAEL (2 mg/kg/day) for these findings, plasma exposures (AUC) were approximately 2 times that expected in humans at the RHD.

[7] = as above; format: in vivo, dog; details: dog, in vivo; 13 to 52 weeks oral
Experimental: as §1

[8] = Coadministration with oral hormonal contraceptive; format: in vivo, human; details: 1 mg norethisterone/norethindrone and 35 μg ethinyl estradiol
From the text: Therefore, concomitant use of ponesimod is not expected to decrease the efficacy of hormonal contraceptives. No interaction studies have been performed with oral contraceptives containing other progestogens: however, an effect of ponesimod on their exposure is not expected.

[9] = target: S1P receptor 1 (Homo sapiens, UniProt P21453); assay: S1P receptor binding / activity
Chain of S1P receptor 1 (P21453 whole entry): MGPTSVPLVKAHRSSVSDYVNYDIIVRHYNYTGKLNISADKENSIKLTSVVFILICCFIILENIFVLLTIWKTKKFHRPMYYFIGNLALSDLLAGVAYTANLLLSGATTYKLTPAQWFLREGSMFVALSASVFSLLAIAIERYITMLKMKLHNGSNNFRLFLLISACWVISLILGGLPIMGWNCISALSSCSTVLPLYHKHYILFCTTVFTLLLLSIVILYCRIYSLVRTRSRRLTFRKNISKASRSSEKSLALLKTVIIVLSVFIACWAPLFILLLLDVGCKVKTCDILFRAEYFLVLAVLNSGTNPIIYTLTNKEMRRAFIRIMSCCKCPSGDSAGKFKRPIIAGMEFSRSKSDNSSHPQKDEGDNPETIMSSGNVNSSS
From the text: Ponesimod is extensively metabolized prior to excretion in humans, though unchanged ponesimod was the main circulating component in plasma. […] M13 and M12 are respectively about 20% and 6% of total drug-related exposure.

[10] = test system: plasma proteins; assay: in vitro; format: in vitro ADME
From the text: (§2) Ponesimod is highly bound to plasma proteins (>99%) and is mainly (78.5%) distributed in the plasma fraction of whole blood.

[11] = in vitro; format: in vitro ADME; details: human, plasma
From the text: as §2

[12] = test system: CYP or UGT enzymes, or transporters; assay: In vitro investigations of drug-drug interaction potential; format: in vitro ADME; details: at recommended dose of 20 mg once-daily
[13] = test system: peripheral lymphocyte count; format: in vivo, human
From the text: PONVORY causes a dose-dependent reduction in peripheral lymphocyte count to 30-40% of baseline values because of reversible sequestration of lymphocytes in lymphoid tissues [see Clinical Pharmacology (12.2)]. PONVORY may therefore increase the susceptibility to infections. Life-threatening and rare fatal infections have been reported in association with other sphingosine 1-phosphate (SIP) receptor modulators.
Initiation of treatment with PONVORY should be delayed in patients with active infection until resolution. Lymphocyte counts returned to the normal range in 90% of patients within 1 week of stopping therapy in modeling studies [see Clinical Pharmacology (12.2)]. In Study 1, peripheral lymphocyte counts returned to normal range within 2 weeks after discontinuation of PONVORY, which was the first timepoint evaluated. Because residual pharmacodynamic effects, such as lowering effects on peripheral lymphocyte count, may persist for 1 to 2 weeks after discontinuation of PONVORY, vigilance for infection should be continued for 1 to 2 weeks after PONVORY is discontinued [see Warnings and Precautions (5.12)].
In Study 1, the proportion of patients who experienced lymphocyte counts less than 0.2×10^9/L was 3.2%. Effective diagnostic and therapeutic strategies should be employed in patients with symptoms of infection while on therapy. Consider interruption of treatment with PONVORY if a patient develops a serious infection.

[14] = test system: mice, rats, and dogs; details: in vivo
From the text: At the higher doses tested in short-term studies, alveolar histiocytosis was associated with lung edema, emphysema, or hyalinosis, and with bronchioloalveolar hyperplasia after cessation of dosing in rats and alveolar histiocytosis and hyalinosis in dogs. Effects tended to be absent or less severe after chronic treatment. These findings are considered secondary to increased vascular permeability caused by S1P1 receptor modulation.

[15] = test system: pregnant rabbits; assay: Dose-range finding study in pregnant rabbits, oral; format: in vivo, rabbit; details: 0, 6, 20, or 60 mg/kg/day; at lowest dose tested
From the text: No maternal toxicity was observed.

[16] = Excretion after single oral administration of 14C-ponesimod; format: in vivo, human; details: single oral 14C-ponesimod
From the text: Following a single oral administration of ^14C-ponesimod, 57% to 80% of the dose was recovered in feces (16% as unchanged ponesimod), and 10% to 18% in urine (no unchanged ponesimod).

SMILES: CCC/N=C1\S/C(=C\c2ccc(OC[C@H](O)CO)c(Cl)c2)C(=O)N1c1ccccc1C [Ponesimod, (R)-5-[3-chloro-4-(2,3-dihydroxy-propoxy)-benz[Z]ylidene]-2-([Z]-propylimino)-3-o-tolyl-thiazolidin-4-one]
- Odds ratio PON vs TER for NEDA-3 [1]: 1.70
- Patients achieving NEDA-3 [1]: 28.2%
- Absolute mean lymphocyte count at greatest decrease ([2]; after 7 daily doses of 20 mg): 650 cells/μL
- Greatest decrease in absolute mean lymphocyte count, % of baseline ([2]; after 7 daily doses of 20 mg, 6 hours after administration): 26 % of baseline
- Time of greatest reduction of peripheral blood lymphocyte count ([2]; post-dose, healthy volunteers): 6 h
- Effect of strong CYP3A4 and UGT1A1 inducers on systemic exposure [3]: may decrease the systemic exposure
- Micronucleus in rat result [4]: negative
- Dose at which heart rate decreases plateaued [5]: greater than or equal to 40 mg
- Plasma exposures (AUC) at NOAEL relative to humans at RHD [6]: approximately 2 times
- NOAEL [7]: 2 mg/kg/day
- Pharmacokinetic interaction with oral hormonal contraceptive [8]: no clinically relevant pharmacokinetic interaction
- Binding to S1P receptor 1 [9]: binds with high affinity
- Distribution in the plasma fraction of whole blood [10]: 78.5%
- Plasma protein binding ([10]; human, plasma): greater than 99%
- fraction unbound [11]: < 0.01
- Drug-drug interaction potential for CYP or UGT enzymes, or transporters [12]: do not show any clinically relevant drug-drug interaction potential
- Time for peripheral lymphocyte counts to return to normal range after discontinuation ([13]; Study 1, first timepoint evaluated): ≤ 2 weeks
- Peripheral lymphocyte count reduced to % of baseline values ([13]; dose-dependent): 30-40 % of baseline
- Proportion of patients with lymphocyte counts less than 0.2×10^9/L ([13]; human, in vivo): 3.2%
- Lung findings in oral toxicity studies [14]: Increases in lung weight and histopathology
- Findings in dose-range finding study in pregnant rabbits [15]: an increase in embryofetal death and fetal limb malformation
- Dose recovered in feces as unchanged ponesimod [16]: 16%
